From PubChem BioAssay (NCI)
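A five-concentration, 48-hour dose response in 96-well plates underlies each endpoint, interpolated linearly between surrounding concentrations. The concentration for 50% growth inhibition is given as GI50. TGI: total growth inhibition.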

Legend:
Assay in all cases: NCI tumour cell line growth inhibition, 48 h
HS 578T breast = system: HS 578T breast
HL-60(TB) leukemia = system: HL-60(TB) leukemia
HT29 colon = system: HT29 colon
RPMI-8226 leukemia = system: RPMI-8226 leukemia
OVCAR-4 ovarian = system: OVCAR-4 ovarian
HCC-2998 colon = system: HCC-2998 colon
SNB-19 CNS = system: SNB-19 CNS
U251 CNS = system: U251 CNS
A498 renal = system: A498 renal
SNB-75 CNS = system: SNB-75 CNS
PC-3 prostate = system: PC-3 prostate
CAKI-1 renal = system: CAKI-1 renal
SK-MEL-28 melanoma = system: SK-MEL-28 melanoma
HOP-92 NSCLC = system: HOP-92 NSCLC
TK-10 renal = system: TK-10 renal
NCI-H460 lung = system: NCI-H460 lung
LOX IMVI melanoma = system: LOX IMVI melanoma
NCI-H23 lung = system: NCI-H23 lung
SF-268 CNS = system: SF-268 CNS
SK-MEL-2 melanoma = system: SK-MEL-2 melanoma
IGROV1 ovarian = system: IGROV1 ovarian
M14 melanoma = system: M14 melanoma
MALME-3M melanoma = system: MALME-3M melanoma
SK-MEL-5 melanoma = system: SK-MEL-5 melanoma
MDA-MB-231 breast = system: MDA-MB-231 breast
786-0 renal = system: 786-0 renal
SN12C renal = system: SN12C renal
COLO 205 colon = system: COLO 205 colon
NCI/ADR-RES ovarian = system: NCI/ADR-RES ovarian
RXF 393 renal = system: RXF 393 renal
OVCAR-5 ovarian = system: OVCAR-5 ovarian
HOP-62 NSCLC = system: HOP-62 NSCLC
OVCAR-3 ovarian = system: OVCAR-3 ovarian
OVCAR-8 ovarian = system: OVCAR-8 ovarian
SW-620 colon = system: SW-620 colon
SK-OV-3 ovarian = system: SK-OV-3 ovarian
UO-31 renal = system: UO-31 renal
MDA-MB-435 = system: MDA-MB-435
KM12 colon = system: KM12 colon
EKVX NSCLC = system: EKVX NSCLC
MCF7 breast = system: MCF7 breast
CCRF-CEM leukemia = system: CCRF-CEM leukemia
SF-539 CNS = system: SF-539 CNS
DU-145 prostate = system: DU-145 prostate
NCI-H226 lung = system: NCI-H226 lung
A549 NSCLC = system: A549 NSCLC
UACC-257 melanoma = system: UACC-257 melanoma
NCI-H522 lung = system: NCI-H522 lung
SF-295 CNS = system: SF-295 CNS
HCT-15 colon = system: HCT-15 colon
UACC-62 melanoma = system: UACC-62 melanoma
ACHN renal = system: ACHN renal
HCT-116 colon = system: HCT-116 colon
T-47D breast = system: T-47D breast
MOLT-4 leukemia = system: MOLT-4 leukemia
SR leukemia = system: SR leukemia
K-562 leukemia = system: K-562 leukemia

N=C(N)c1ccc(-c2ccc(-c3ccc(Cl)c(Cl)c3)o2)cc1
GI50 (HS 578T breast): 2.1 µM
TGI (HS 578T breast): 5.52 µM
GI50 (HL-60(TB) leukemia): 1.55 µM
TGI (HL-60(TB) leukemia): 4.05 µM

Cc1cc(C#Cc2ccccc2)ccc1-n1c(/C=C/c2cc(O)ccc2O)nc2ccccc2c1=O
GI50 (HT29 colon): 1.97 µM
TGI (HT29 colon): 4.19 µM
GI50 (RPMI-8226 leukemia): 1.26 µM
TGI (RPMI-8226 leukemia): 6.08 µM
GI50 (OVCAR-4 ovarian): 2.4 µM
TGI (OVCAR-4 ovarian): 8.5 µM
GI50 (HCC-2998 colon): 1.36 µM
TGI (HCC-2998 colon): 2.64 µM
GI50 (SNB-19 CNS): 1.62 µM
TGI (SNB-19 CNS): 3.18 µM
GI50 (U251 CNS): 1.45 µM
TGI (U251 CNS): 2.77 µM
GI50 (A498 renal): 0.37 µM
TGI (A498 renal): 2.63 µM
GI50 (SNB-75 CNS): 1.3 µM
TGI (SNB-75 CNS): 2.78 µM
GI50 (PC-3 prostate): 2.19 µM
TGI (PC-3 prostate): 8.34 µM
GI50 (CAKI-1 renal): 2.15 µM
TGI (CAKI-1 renal): 7.24 µM
GI50 (SK-MEL-28 melanoma): 1.53 µM
TGI (SK-MEL-28 melanoma): 2.87 µM
GI50 (HOP-92 NSCLC): 1.54 µM
TGI (HOP-92 NSCLC): 4.33 µM
GI50 (TK-10 renal): 2.03 µM
TGI (TK-10 renal): 5.61 µM
GI50 (NCI-H460 lung): 1.57 µM
TGI (NCI-H460 lung): 2.91 µM
GI50 (LOX IMVI melanoma): 1.37 µM
TGI (LOX IMVI melanoma): 2.65 µM
GI50 (NCI-H23 lung): 1.48 µM
TGI (NCI-H23 lung): 3.12 µM
GI50 (SF-268 CNS): 1.31 µM
TGI (SF-268 CNS): 3.07 µM
GI50 (SK-MEL-2 melanoma): 1.4 µM
TGI (SK-MEL-2 melanoma): 3.05 µM
GI50 (IGROV1 ovarian): 2.45 µM
TGI (IGROV1 ovarian): 8 µM
GI50 (M14 melanoma): 1.54 µM
TGI (M14 melanoma): 2.91 µM
GI50 (MALME-3M melanoma): 1.5 µM
TGI (MALME-3M melanoma): 3.72 µM
GI50 (SK-MEL-5 melanoma): 1.35 µM
TGI (SK-MEL-5 melanoma): 2.64 µM
GI50 (MDA-MB-231 breast): 1.56 µM
TGI (MDA-MB-231 breast): 3.16 µM
GI50 (786-0 renal): 1.74 µM
TGI (786-0 renal): 3.15 µM
GI50 (SN12C renal): 1.62 µM
TGI (SN12C renal): 3.01 µM
GI50 (COLO 205 colon): 1.48 µM
TGI (COLO 205 colon): 2.8 µM
GI50 (NCI/ADR-RES ovarian): 2.06 µM
TGI (NCI/ADR-RES ovarian): 5.22 µM
GI50 (RXF 393 renal): 1.65 µM
TGI (RXF 393 renal): 3.72 µM
GI50 (OVCAR-5 ovarian): 1.39 µM
TGI (OVCAR-5 ovarian): 2.7 µM
GI50 (HS 578T breast): 1.54 µM
TGI (HS 578T breast): 7.95 µM
GI50 (HOP-62 NSCLC): 1.71 µM
TGI (HOP-62 NSCLC): 3.79 µM
GI50 (OVCAR-3 ovarian): 1.49 µM
TGI (OVCAR-3 ovarian): 2.81 µM
GI50 (OVCAR-8 ovarian): 1.94 µM
TGI (OVCAR-8 ovarian): 5.4 µM
GI50 (SW-620 colon): 1.71 µM
TGI (SW-620 colon): 3.51 µM
GI50 (SK-OV-3 ovarian): 1.83 µM
TGI (SK-OV-3 ovarian): 4.61 µM
GI50 (UO-31 renal): 1.16 µM
TGI (UO-31 renal): 3.1 µM
GI50 (MDA-MB-435): 1.67 µM
TGI (MDA-MB-435): 3.53 µM
GI50 (KM12 colon): 1.65 µM
TGI (KM12 colon): 3.07 µM
GI50 (EKVX NSCLC): 1.24 µM
TGI (EKVX NSCLC): 5.41 µM
GI50 (MCF7 breast): 1.45 µM
TGI (MCF7 breast): 2.87 µM
GI50 (CCRF-CEM leukemia): 1.54 µM
TGI (CCRF-CEM leukemia): 7.13 µM
GI50 (SF-539 CNS): 1.6 µM
TGI (SF-539 CNS): 3.44 µM
GI50 (DU-145 prostate): 0.419 µM
TGI (DU-145 prostate): 1.62 µM
GI50 (NCI-H226 lung): 1.52 µM
TGI (NCI-H226 lung): 3.93 µM
GI50 (A549 NSCLC): 1.28 µM
TGI (A549 NSCLC): 2.68 µM
GI50 (UACC-257 melanoma): 1.56 µM
TGI (UACC-257 melanoma): 2.94 µM
GI50 (NCI-H522 lung): 1.29 µM
TGI (NCI-H522 lung): 2.56 µM
GI50 (SF-295 CNS): 1.35 µM
TGI (SF-295 CNS): 3.82 µM
GI50 (HCT-15 colon): 1.03 µM
TGI (HCT-15 colon): 2.21 µM
GI50 (UACC-62 melanoma): 1.52 µM
TGI (UACC-62 melanoma): 2.86 µM
GI50 (ACHN renal): 1.44 µM
TGI (ACHN renal): 2.75 µM
GI50 (HCT-116 colon): 1.46 µM
TGI (HCT-116 colon): 2.77 µM
GI50 (T-47D breast): 1.14 µM
TGI (T-47D breast): 3.67 µM
GI50 (MOLT-4 leukemia): 1.14 µM
TGI (MOLT-4 leukemia): 3.97 µM
GI50 (SR leukemia): 1.1 µM
TGI (SR leukemia): 2.87 µM
GI50 (K-562 leukemia): 1.42 µM
TGI (K-562 leukemia): 3.82 µM
